Test results: patent publication US20070243629A1, “High Affinity Ligands for Influenza Virus and Methods for Their Production” (Glykos Finland Oy, priority 2003, published 2007)

Columns and labels:
Format in all cases: binding, human influenza virus A
Parameters in all cases: key: “+” = binding; “−” = no binding; “(+)” = trace binding
A/New Caledonia/20/99 = test system: A/New Caledonia/20/99
A/Kiev/301/94 H3N2 = test system: A/Kiev/301/94 H3N2
A/Hong Kong/8/68 H3N2 = test system: A/Hong Kong/8/68 H3N2
A/2/Japan/305/57 H2N2 = test system: A/2/Japan/305/57 H2N2
A/X31, A/Aichi/3/75 H3N2 = test system: A/X31, A/Aichi/3/75 H3N2
A/Beijing/262/95 H1N1 = test system: A/Beijing/262/95 H1N1
A/Taiwan/1/86 H1N1 = test system: A/Taiwan/1/86 H1N1
A/PR/8/34 H1N1 = test system: A/PR/8/34 H1N1
A/Shangdong/9/93 H3N2 = test system: A/Shangdong/9/93 H3N2

Measured: Binding of different human influenza virus A strains to glycolipids

Globoside
−: A/New Caledonia/20/99 | A/Kiev/301/94 H3N2 | A/Hong Kong/8/68 H3N2 | A/2/Japan/305/57 H2N2 | A/X31, A/Aichi/3/75 H3N2 | A/Beijing/262/95 H1N1 | A/Taiwan/1/86 H1N1 | A/PR/8/34 H1N1 | A/Shangdong/9/93 H3N2
